In ChEMBL document CHEMBL1127334, “Discovery of new non-phospholipid inhibitors of the secretory phospholipases A2” (J Med Chem, 1994):

molecular target: T1, Phospholipase A2, membrane associated (Homo sapiens, UniProt P14555); experiment: Compound was tested for in vitro activity against S-phospholipase A2 (s-PLA2) isolated from human platelets
T1 sequence (P14555 whole entry): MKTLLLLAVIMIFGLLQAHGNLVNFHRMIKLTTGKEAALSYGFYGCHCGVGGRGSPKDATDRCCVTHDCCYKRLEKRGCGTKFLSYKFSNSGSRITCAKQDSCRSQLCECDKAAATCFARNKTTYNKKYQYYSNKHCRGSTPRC

IC50 | SMILES
65 nM | O=C(O)C[C@@H](CSc1ccc(Cc2ccccc2)cc1)NC(=O)CCCCCCc1ccccc1
1850 nM | CCCCCC/C=C/CC(=O)N[C@@H](CCC(=O)O)CSc1ccc2ccccc2c1
12000 nM | CCCCCC/C=C/CC(=O)N[C@H](CCC(=O)O)CSc1ccc2ccccc2c1
3800 nM | CCCCCC/C=C/CC(=O)N[C@H](CSc1ccc(Cc2ccccc2)cc1)CC(=O)O
